Source: paper PMC10572563, “Application of Pluronics for Enhancing Aqueous Solubility of Lipophilic Microtubule Destabilizing Compounds on the Sea Urchin Embryo Model” (International Journal of Molecular Sciences, 2023)
“And” between values parts separate entries of the source, which are not always exact repeats. Identical values can stand only once. Like-named read-outs stand apart in the source and are kept apart here.

What was measured:
[1] = system: sea urchin embryos
Protocol: Toxic effects were assessed by exposing fertilized eggs (5−18 min after fertilization) to 2-fold decreasing concentrations of Pluronics. Embryo development was monitored at room temperature until the beginning of active feeding (four-arm mid-pluteus stage). The effects were detected at the following developmental stages: cleavage (2.5 and 5.5–6 h after fertilization), hatched mid-blastula (8.5–9.5 h), mesenchyme blastula (~11 h), prism (20–21 h), early pluteus (25–27 h), and four-arm pluteus (34–35 h) (Figure S2). The effects were estimated quantitatively as no observed effect concentration (NOEC), minimum effective concentration (MEC), and minimum lethal concentration (MLC).

[2] = Precipitation in 1 mM intermediate solutions (visual and microscopic examination); type: physicochemical; conditions: for Appearance of 1 mM solution in 5% F127: 1 mM in 5% F127, room temperature; for Appearance of 1 mM/FSW intermediate solution: 1 mM in FSW
Protocol: Stock solutions of albendazole 1 and isoxazole 2 were prepared in DMSO and 2-pyrrolidone at 10 mM concentration, and stock solutions of chalcones 3 and 4 were prepared in DMSO at 10 mM concentration. […] The precipitation of compounds was analyzed via both visual and microscopic examination.

[3] = pH 7.0; cited from earlier work
[4] = Aqueous solubility of chalcones in PBS or Pluronic solutions (UV absorbance of saturated supernatant); type: physicochemical; conditions: for Increase of solubility: Pluronic P123 concentration up to 10%, 25 °C; for Increase of solubility / solubility: PBS pH 7.4; for Enhancement of solubility in aqueous medium: in the presence of 5% Pluronic 123; for solubility: phosphate-buffered saline (PBS) without Pluronics, aqueous with cosolvent or surfactant or cyclodextrin, kinetic from dmso stock, without Pluronics
Protocol: The absorbance of chalcone solutions in DMSO was measured using an Ultrospec 1100 Pro UV/Vis spectrophotometer. […] To this end, 100 mg/mL solutions of 3 and 4 in DMSO were prepared and diluted 10-fold either with neat PBS or with Pluronic solutions of various concentrations. Dilution with PBS yielded the precipitation of the most part of the solute. The precipitated chalcones were removed via centrifugation at 9000 rpm for 5 min. The supernatant represented a saturated solution of the chalcone in the aqueous medium. Then, the supernatants were 10–1000-fold diluted with DMSO, their absorbance was measured at 367 nm for 3 or 350 nm for 4, and the aqueous solubility of chalcones was calculated using the εDMSO values obtained previously. The solubility values were measured in 2–4 repetitions and presented in the graphs as the mean ± SD for p < 0.05.

[5] = solvents in the in vivo sea urchin embryo assay

O=C1CCCN1 [2-pyrrolidone, 2-Pyrrolidone]
NOEC [1, 5]: 0.1 % v/v

C[S+](C)[O-] [DMSO]
NOEC [1, 5]: 0.2 % v/v

CCO [EtOH]
NOEC ([1]; in vivo): 0.5 % v/v

CCCSc1ccc2nc(NC(=O)OC)[nH]c2c1 [compound 1, albendazole]
Appearance of 1 mM solution in 5% F127 [2]: formed opaque 1 mM solution in 5% F127 | Appearance of 1 mM/FSW intermediate solution [2]: formed a thick suspension of fine crystals | Aqueous solubility [3]: < 1 µg/mL

COc1ccc(-c2cnoc2-c2cc(OC)c(OC)c(OC)c2)cc1 [compound 2]
Appearance of 1 mM solution in 5% F127 [2]: remained clear throughout four days of storage at room temperature | Appearance of 1 mM/FSW intermediate solution [2]: opaque, followed by the precipitation of crystals in the bottom of the vial

COc1ccc(/C=C/C(=O)c2cc(OC)c(OC)c(OC)c2)cc1O [compound 3]
Increase of solubility [4]: 13 fold | Enhancement of solubility in aqueous medium [4]: enhanced by an order of magnitude | solubility [4]: 344 µg/mL and 1000 µM | Appearance of 1 mM/FSW intermediate solution [2]: clear without any visible signs of precipitation

COc1ccc(/C=C/C(=O)c2cc(OC)c(OC)c(OC)c2)cc1 [compound 4]
Increase of solubility [4]: 19 fold | Enhancement of solubility in aqueous medium [4]: enhanced by an order of magnitude | solubility [4]: 88.7 µg/mL and 270 µM | Appearance of 1 mM/FSW intermediate solution [2]: formed a thick suspension of fine crystals

Pluronic P123
MEC relative to CMC ([1]; in vivo): ~ 6 times | Reduction of MEC ([1]; in vivo): 4 times
